Patent US20230310424A1, “METHODS AND MATERIALS FOR INCREASING NICOTINAMIDE PHOSPHORIBOSYL TRANSFERASE ACTIVITY” (University of Pittsburgh - Of the Commonwealth System of …, priority 2020, published 2023)

test system: NAD^+ levels in cells; experiment: Assay for Total NADH and NAD+ Measurements in Cells; format: cell-based; settings: cells incubated overnight with test compound; 100 percent = no change vs untreated control cells; cell type and concentration not given
Procedure: 2,000 cells/well and, at the same time, test compounds dissolved in media at the desired concentration were added to each well. The treated cells were incubated overnight in CO2 incubator. The cells were washed 6 times with PBS with 1 mM CaCl2 and 1 mM MgCl2. In the last wash, 10 μL of PBS with 1 mM CaCl2 and 1 mM MgCl2 per well were left in each well. Immediately thereafter, 10 μL 0.4% dodecyltrimethyl-ammonium bromide (DTAB) in phosphate buffer pH 8.0 as added, and the plates were shaked at 1000 rpm for 5 minutes. 60 μL reaction mix was added, and fluorescence at Ex/Em 530/585 was immediately monitored. A linear increase should be achieved with 8 cycles every 92 seconds, 10 number of flashes/well/cycle. The reaction mix was prepared per the following table, respecting the amount and order in which each component was added:
A percentage of 100 percent would indicate no increase or decrease in NAD^+ levels as compared to that measured for untreated control cells, while a percentage of 125 percent would indicate an increase in NAD^+ levels of 25 percent as compared to that measured for untreated control cells.

In order of rising “A: increase in NAD^+ levels in cells in response to the test compound, as the percent of NAD^+ levels compared to that in the absence of the test compound” value:
1. O=C(O)c1ccc2nc(-c3ccc(F)cc3)c(-c3cccs3)nc2c1 [BC19156]  105%
2. CN1CCN(C(=O)c2ccc3nc(C(F)(F)F)c(-c4cccnc4)nc3c2)CC1 [BC19105]  105%
3. Fc1ccc(-c2nc3cc(-c4nnn[nH]4)ccc3nc2-c2cccs2)cc1 [BC19186]  105%
4. CN1CCN(C(=O)c2ccc3nc(-c4ccc(F)cc4)c(C(F)(F)F)nc3c2)CC1 [BC19110]  105%
5. Fc1ccc(-c2nc3ccc(-c4ncco4)cc3nc2-c2ccc(F)cc2)cc1 [BC19145]  106%
6. CN1CCN(C(=O)c2ccc3nc(C(F)(F)F)c(-c4ccncc4)nc3c2)CC1 [BC19149]  106%
7. CN1CCN(C(=O)c2ccc3nc(-c4ccc(C#N)cc4)c(-c4ccc(C#N)cc4)nc3c2)CC1 [BC19446]  106%
8. CN(C)c1cccc(-c2nc3ccc(C(=O)O)cc3nc2-c2cccc(N(C)C)c2)c1 [BC19500]  107%
9. Fc1ccc(-c2nc3ccc(-c4nnn[nH]4)cc3nc2-c2ccc(F)cc2)cc1 [BC19144]  107%
10. O=C(O)c1ccc2nc(-c3ccc(F)cc3)c(-c3ccc(F)cc3)nc2c1 [BC19118]  108%
11. Cc1noc(-c2ccc3nc(-c4ccc(F)cc4)c(-c4ccc(F)cc4)nc3c2)n1 [BC19193]  109%
12. C#CCNC(=O)c1ccc2nc(-c3ccc(F)cc3)c(-c3cccs3)nc2c1 [BC19189]  109%
13. Fc1ccc(-c2nc3cc(-c4nnn[nH]4)ccc3nc2C(F)(F)F)cc1 [BC19113]  110%
14. CN1CCN(C(=O)c2ccc3nc(-c4cccs4)c(-c4ccc(F)cc4)nc3c2)CC1 [BC19109]  111%
15. Cn1cnnc1-c1ccc2nc(-c3ccc(F)cc3F)c(-c3ccccc3)nc2c1 [BC19444]  112%
16. CNC(=O)c1ccc2nc(-c3cccs3)c(-c3ccc(F)cc3)nc2c1 [BC19119]  112%
17. NC(=O)c1ccc2nc(-c3ccc(F)cc3)c(-c3cccs3)nc2c1 [BC19187]  113%
18. CN(C)c1cccc(-c2nc3ccc(C(=O)NCCO)cc3nc2-c2cccc(N(C)C)c2)c1 [BC19502]  115%
19. NC(=O)c1ccc2nc(-c3ccc(F)cc3)c(C(F)(F)F)nc2c1 [BC19117]  116%
20. Cc1cnc(-c2ccc3nc(-c4ccc(F)cc4)c(-c4cccs4)nc3c2)o1 [BC19249]  119%
21. C#CCNC(=O)c1ccc2nc(-c3cccc(NC(=O)CN(C)C)c3)c(-c3cccc(NC(=O)CN(C)C)c3)nc2c1 [BC20287]  120%
22. CS(=O)(=O)c1ccc(-c2nc3ccc(-c4ncco4)cc3nc2-c2ccc(F)cc2)s1 [BC19248]  125%
23. C#CCNC(=O)c1cnc2nc(-c3ccc(F)cc3)c(-c3ccc(F)cc3)nc2c1 [BC20257]  130%
24. COCCNC(=O)c1cnc2nc(-c3ccc(F)cc3)c(-c3ccc(F)cc3)nc2c1 [BC20200]  132%
25. CN(C)CCNC(=O)c1cnc2nc(-c3ccc(F)cc3)c(-c3ccc(F)cc3)nc2c1 [BC20201]  133%
26. C#CCNC(=O)c1ccc2nc(-c3cccc(N(C)C)c3)c(-c3cccc(N(C)C)c3)nc2c1 [BC19499]  165%
